Results from patent publication US9643964B2, “3-(2-aminopyrimidin-4-yl)-5-(3-hydroxypropynyl)-1H-pyrrolo[2,3-C]pyridine derivatives as NIK inhibitors for the treatment of cancer” (Janssen Pharmaceutica NV, priority 2013, dated 2017).

Experiments:
[1] = tested on: L-363 cells; test: Biological Assay C: antiproliferative activity on L-363 cells (CellTiter-Glo); assay type: cell-based, human; settings: 72 hr treatment, averaged values
Protocol: (§1) Determination of Antiproliferative Activity on LP-1, L-363 and JJN-3 Cells
(§2) All compounds tested were dissolved in DMSO and further dilutions were made in culture medium. Final DMSO concentration was 0.3% (v/v) in cell proliferation assays. Viability was assessed using CellTiter-Glo cell viability assay kit (Promega). The human LP-1, L-363 and JJN-3 cells (DSMZ) were cultured in RPMI 1640 medium supplemented with 2 mM L-glutamine, and 10% fetal calf serum (PAA). Cells were routinely kept as suspension cells at 37° C. in a humidified 5% CO2 atmosphere. Cells were passaged at a seeding density of 0.2×10^6/ml twice a week. Cells were seeded in black tissue culture treated 96-well plates (Perkin Elmer). Densities used for plating ranged from 2,000 to 6,000 cells per well in a total volume of 75 μl medium. After twenty four hours, drugs and/or solvents were added (25 μl) to a final volume of 100 μl. Following 72 hr of treatment plates were removed from the incubator and allowed to equilibrate to room temperature for approx 10 min. 100 μl CellTiter-Glo reagent was added to each well that was then covered (Perkin Elmer Topseal) and shaken on plate shaker for 10 min. Luminescence was measured on a HTS Topcount (Perkin Elmer). Within an experiment, the results for each treatment were the mean of 2 replicate wells. For initial screening purposes, compounds were tested using a 9 point dilution curve (serial 1:3 dilutions). For each experiment, controls (containing no drug) and a blank incubation (containing cells read at the time of compound addition) were run in parallel. The blank value was subtracted from all control and sample values. For each sample, the mean value for cell growth (in relative light units) was expressed as a percentage of the mean value for cell growth of the control.

[2] = tested on: JJN-3 cells; test: Biological Assay C: antiproliferative activity on JJN-3 cells (CellTiter-Glo); assay type: cell-based, human; settings: 72 hr treatment, averaged values
Protocol: as §1, §2

[3] = biological target: Recombinant Human NF-kappaB-Inducing Kinase (NIK/MAP3K14) (Homo sapiens, UniProt Q99558); test: Biological Assay A2: inhibition of auto-phosphorylation of recombinant human NIK/MAP3K14 (AlphaScreen); assay type: biochemical; settings: auto-phosphorylation; averaged over all measurements on all batches; read-out: αscreen IC50
Protocol: Inhibition of Auto-Phosphorylation of Recombinant Human NF-kappaB-Inducing Kinase (NIK/MAP3K14) Activity (AlphaScreen®)
NIK/MAP3K14 auto-phosphorylation activity was measured using the AlphaScreen® (αscreen) format (Perkin Elmer). All compounds tested were dissolved in dimethyl sulfoxide (DMSO) and further dilutions were made in assay buffer. Final DMSO concentration was 1% (v/v) in assays. Assay buffer was 50 mM Tris pH 7.5 containing 1 mM EGTA (ethylene glycol tetraacetic acid), 1 mM DTT (dithiothreitol), 0.1 mM Na3VO4, 5 mM MgCl2, 0.01% Tween 20. Assays were carried out in 384 well Alphaplates (Perkin Elmer). Incubations consisted of compound, 25 microM Adenosine-5′-triphosphate (ATP), and 0.2 nM NIK/MAP3K14. Incubations were initiated by addition of GST-tagged NIK/MAP3K14 enzyme, carried out for 1 h at 25° C. and terminated by addition of stop buffer containing anti-phospho-IKK Ser176/180 antibody. Protein A Acceptor and Glutathione-Donor beads were added before reading using an EnVision® Multilabel Plate Reader (Perkin Elmer). Signal obtained in the wells containing blank samples was subtracted from all other wells and IC50's were determined by fitting a sigmoidal curve to % inhibition of control versus Log10 compound concentration.

[4] = tested on: LP-1 cells; test: Biological Assay C: antiproliferative activity on LP-1 cells (CellTiter-Glo); assay type: cell-based, human; settings: 72 hr treatment, averaged values
Protocol: as §1, §2

Sequence of Recombinant Human NF-kappaB-Inducing Kinase (NIK/MAP3K14) (Q99558 whole entry): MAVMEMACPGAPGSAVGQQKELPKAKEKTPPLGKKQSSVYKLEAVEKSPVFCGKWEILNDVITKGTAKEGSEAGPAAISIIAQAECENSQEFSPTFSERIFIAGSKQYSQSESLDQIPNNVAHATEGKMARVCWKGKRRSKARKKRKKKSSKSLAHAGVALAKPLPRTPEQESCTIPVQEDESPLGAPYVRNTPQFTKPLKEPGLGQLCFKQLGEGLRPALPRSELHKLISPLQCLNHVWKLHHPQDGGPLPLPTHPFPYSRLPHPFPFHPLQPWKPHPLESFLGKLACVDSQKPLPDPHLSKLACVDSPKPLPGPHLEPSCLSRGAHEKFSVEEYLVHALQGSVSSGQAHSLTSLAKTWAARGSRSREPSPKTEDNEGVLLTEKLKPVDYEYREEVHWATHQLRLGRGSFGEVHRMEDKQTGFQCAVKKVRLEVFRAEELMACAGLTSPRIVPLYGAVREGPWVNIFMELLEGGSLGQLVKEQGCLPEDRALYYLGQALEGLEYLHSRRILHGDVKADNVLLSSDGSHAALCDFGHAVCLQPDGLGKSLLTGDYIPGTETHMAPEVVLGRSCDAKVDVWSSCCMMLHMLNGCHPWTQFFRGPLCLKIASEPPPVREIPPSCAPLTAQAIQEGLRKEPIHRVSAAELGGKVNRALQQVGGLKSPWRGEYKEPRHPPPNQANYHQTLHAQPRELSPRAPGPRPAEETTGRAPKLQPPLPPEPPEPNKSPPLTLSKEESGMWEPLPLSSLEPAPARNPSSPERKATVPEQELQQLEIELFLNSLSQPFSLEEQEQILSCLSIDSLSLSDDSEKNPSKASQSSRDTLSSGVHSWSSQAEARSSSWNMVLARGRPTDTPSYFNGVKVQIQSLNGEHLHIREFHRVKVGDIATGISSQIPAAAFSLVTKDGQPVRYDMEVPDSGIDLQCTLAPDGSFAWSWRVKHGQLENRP

| Structure (SMILES) | EC50 ([1]; Homo sapiens, L-363, 72 h) | EC50 ([2]; Homo sapiens, JJN-3, 72 h) | IC50 [3] | EC50 ([4]; Homo sapiens, LP-1, 72 h) | EC50 [1] | EC50 [4] | EC50 [2] |
| --- | --- | --- | --- | --- | --- | --- | --- |
| CC(O)(C#Cc1cc2c(-c3nc(N)ncc3F)cn(C3CN(CC(F)(F)F)C3)c2cn1)C1CC1 (centres unmarked) [Compound 145] | 340 nM | 260 nM | 140 nM | – | – | – | – |
| COCCCn1cc(-c2nc(N)ncc2F)c2cc(C#CC(C)(C)O)nc(C)c21 [Compound 86] | 5.9 nM | 9.2 nM | 11 nM | 16 nM | – | – | – |
| COCC(C)n1cc(-c2nc(N)ncc2F)c2cc(C#CC(C)(O)C3CC3)ncc21 (centres unmarked) [Compound 128] | 120 nM | 130 nM | 76 nM | 310 nM | – | – | – |
| COCCCn1cc(-c2nc(N)ncc2F)c2cc(C#CC3(O)CCCC3)ncc21 [Compound 87] | 450 nM | 530 nM | 9 nM | 1200 nM | – | – | – |
| CC(O)(C#Cc1cc2c(-c3nc(N)ncc3F)cn(C3CCN(CCC(F)(F)F)C3)c2cn1)C1CC1 (centres unmarked) [Compound 152] | 75 nM | 48 nM | 47 nM | – | – | – | – |
| COCc1cnc(N)nc1-c1cn(C(C)C)c2cnc(C#CC(C)(C)O)cc12 [Compound 144] | 16 nM | 35 nM | 37 nM | – | – | – | – |
| CCN1CCCC(n2cc(-c3nc(N)ncc3F)c3cc(C#CC(C)(O)C4CC4)ncc32)C1 (centres unmarked) [Compound 138] | 80 nM | 94 nM | 110 nM | 250 nM | – | – | – |
| CCCCC(=O)NCCCn1cc(-c2ccnc(N)n2)c2cc(C#CC(C)(C)O)ncc21 [Compound 147] | 530 nM | 1400 nM | 130 nM | – | – | – | – |
| CC(C)N1CCC(n2cc(-c3ccnc(N)n3)c3cc(C#CC(C)(C)O)ncc32)CC1 [Compound 78] | 410 nM | 580 nM | 130 nM | 2000 nM | – | – | – |
| COCCCn1cc(-c2nc(N)ncc2F)c2cc(C#CC(C)(O)c3cc(C)on3)ncc21 (centres unmarked) [Compound 91] | 470 nM | 1100 nM | 12 nM | 4900 nM | – | – | – |
| CN1CCC(n2cc(-c3ccnc(N)n3)c3cc(C#CC(C)(C)O)ncc32)CC1 [Compound 77] | 320 nM | 570 nM | 88 nM | 4000 nM | – | – | – |
| CCN1CCC(n2cc(-c3nc(N)ncc3F)c3cc(C#CC(C)(O)C4CC4)ncc32)CC1 (centres unmarked) [Compound 106] | 90 nM | 120 nM | 95 nM | 340 nM | – | – | – |
| CC(C)n1cc(-c2nc(N)ncc2F)c2cc(C#CC3(O)CCN(C)C3=O)ncc21 (centres unmarked) [Compound 150] | 1500 nM | 1600 nM | 210 nM | – | – | – | – |
| CN1CC(n2cc(-c3nc(N)ncc3F)c3cc(C#CC(C)(O)C4CC4)ncc32)C1 (centres unmarked) [Compound 135] | 64 nM | 180 nM | 68 nM | 410 nM | – | – | – |
| CC(O)(C#Cc1cc2c(-c3nc(N)ncc3F)cn(C3CCOC3)c2cn1)C1CC1 (centres unmarked) [Compound 131] | 89 nM | 150 nM | 21 nM | 440 nM | – | – | – |
| CC(C)(O)C#Cc1cc2c(-c3nc(N)ncc3F)cn(C3CCN(CCF)C3)c2cn1 (centres unmarked) [Compound 151] | 45 nM | 46 nM | 54 nM | – | – | – | – |

| Structure (SMILES) | EC50 ([1]; Homo sapiens, L-363, 72 h) | EC50 ([2]; Homo sapiens, JJN-3, 72 h) | IC50 [3] | EC50 ([4]; Homo sapiens, LP-1, 72 h) | EC50 [1] | EC50 [4] | EC50 [2] |
| --- | --- | --- | --- | --- | --- | --- | --- |
| CN1CCC(n2cc(-c3nc(N)ncc3F)c3cc(C#CC(C)(O)C4CC4)ncc32)C1 (centres unmarked) [Compound 107] | 57 nM | 78 nM | 88 nM | 150 nM | – | – | – |
| COc1cnc(N)nc1-c1cn(C(C)C)c2cnc(C#CC(C)(O)C3CC3)cc12 (centres unmarked) [Compound 149] | 22 nM | 38 nM | 22 nM | – | – | – | – |
| CC(C)(O)C#Cc1cc2c(-c3nc(N)ncc3F)cn(C3CN(C4CC4)C3)c2cn1 [Compound 166] | 60 nM | 96 nM | 76 nM | 180 nM | – | – | – |
| Nc1ncc(F)c(-c2cn(C3COC3)c3cnc(C#CC(O)(CF)C4CC4)cc23)n1 (centres unmarked) [Compound 137] | 380 nM | 550 nM | 53 nM | 1990 nM | – | – | – |
| Nc1ncc(F)c(-c2cn(C3COC3)c3c(C4CC4)nc(C#CC4(O)CCCC4)cc23)n1 [Compound 94] | 200 nM | 300 nM | 31 nM | 2700 nM | – | – | – |
| COCCCn1cc(-c2nc(N)ncc2C)c2cc(C#CC(C)(C)O)ncc21 [Compound 83] | 550 nM | 670 nM | 86 nM | 4700 nM | – | – | – |
| COCCN1CCC(n2cc(-c3nc(N)ncc3F)c3cc(C#CC(C)(O)C4CC4)ncc32)CC1 (centres unmarked) [Compound 126] | – | – | 140 nM | – | 280 nM | 640 nM | 270 nM |
| CN1CCN(C(=O)n2cc(-c3nc(N)ncc3F)c3cc(C#CC(C)(O)C4CC4)ncc32)CC1 (centres unmarked) [Compound 134] | 3000 nM | 4100 nM | 110 nM | 24000 nM | – | – | – |
| CC(O)(C#Cc1cc2c(-c3nc(N)ncc3F)cn(C3CCN(CCF)C3)c2cn1)C1CC1 (centres unmarked) [Compound 153] | 150 nM | 130 nM | 74 nM | – | – | – | – |
| CC(=O)N1CC(n2cc(-c3nc(N)ncc3F)c3cc(C#CC(C)(O)C4CC4)ncc32)C1 (centres unmarked) [Compound 154] | 2800 nM | 4700 nM | 190 nM | – | – | – | – |
| CC(=O)NCCCn1cc(-c2ccnc(N)n2)c2cc(C#CC(C)(C)O)ncc21 [Compound 148] | 7600 nM | 9100 nM | 64 nM | – | – | – | – |
| CC(O)(C#Cc1cc2c(-c3nc(N)ncc3F)cn(C3CN(C4CC4)C3)c2cn1)C1CC1 (single isomer, unassigned) [Compound 157] | 140 nM | 180 nM | 46 nM | – | – | – | – |
| CC(O)(C#Cc1cc2c(-c3nc(N)ncc3F)cn(C3CN(CC4CCCC4)C3)c2cn1)C1CC1 (centres unmarked) [Compound 146] | 580 nM | 450 nM | 200 nM | – | – | – | – |
| COCCCN1CC(n2cc(-c3nc(N)ncc3F)c3cc(C#CC(C)(O)C4CC4)ncc32)C1 (centres unmarked) [Compound 156] | 360 nM | 320 nM | 190 nM | – | – | – | – |
| COCCN1CC(n2cc(-c3nc(N)ncc3F)c3cc(C#CC(C)(O)C4CC4)ncc32)C1 (centres unmarked) [Compound 155] | 380 nM | 400 nM | 140 nM | – | – | – | – |
| COCc1cnc(N)nc1-c1cn(C(C)C)c2cnc(C#CC(C)(O)C3CC3)cc12 (centres unmarked) [Compound 143] | 170 nM | 270 nM | 74 nM | – | – | – | – |
